How the values were obtained:
Format in all cases: biochemical
EGFR (D770_N771insNPG) = EGFR (D770_N771insNPG) (Homo sapiens (Human), UniProt P00533, INS770NPG); assay: HotSpot radiometric kinase assay, EGFR (D770_N771insNPG); conditions: 10 μM ATP, read-out: EGFR (Δ770_N771insNPG) IC50
Protocol: (§1) Biochemical Assays for Inhibition of Wild-Type and Mutant EGFRs
(§2) Briefly, specific kinase/substrate pairs along with required cofactors were prepared in reaction buffer; 20 mM Hepes pH 7.5, 10 mM […], 1 mM EGTA, 0.02% Brij35, 0.02 mg/ml BSA, 0.1 mM Na3VO4, 2 mM DTT, 1% DMSO. Compounds were delivered into the reaction, followed […] later by addition of a mixture of ATP (Sigma, St. Louis MO) and ^33P ATP (Perkin Elmer, Waltham MA) to a final concentration of 10 μM. Reactions were carried out at room temperature for 120 min, followed by spotting of the reactions onto P81 ion exchange filter paper (Whatman Inc., Piscataway, NJ). Unbound phosphate was removed by extensive washing of filters in 0.75% phosphoric acid. […] IC50 values and curve fits were obtained using Prism (GraphPad Software).

EGFR Δ746-750 mutant = EGFR Δ746-750 mutant (Homo sapiens (Human), UniProt P00533, DEL746-750); assay: HotSpot radiometric kinase assay, EGFR Δ746-750 mutant; conditions: 10 μM ATP
Protocol: as §1, §2

[1] = target: EGFR Δ746-750/C797S mutant (Homo sapiens (Human), UniProt P00533, C797S/DEL746-750); assay: HotSpot radiometric kinase assay, EGFR Δ746-750/C797S mutant; conditions: 10 μM ATP
Protocol: as §1, §2

EGFR WT = EGFR WT (Homo sapiens (Human), UniProt P00533); assay: HotSpot radiometric kinase assay (Reaction Biology), EGFR WT; conditions: 10 μM ATP
Protocol: as §1, §2

EGFR L858R mutant = EGFR L858R mutant (Homo sapiens (Human), UniProt P00533, L858R); assay: HotSpot radiometric kinase assay, EGFR L858R mutant; conditions: 10 μM ATP
Protocol: as §1, §2

[2] = target: EGFR L858R/T790M/C797S mutant (Homo sapiens (Human), UniProt P00533, C797S/L858R/T790M); assay: HotSpot radiometric kinase assay, EGFR L858R/T790M/C797S mutant; conditions: 10 μM ATP
Protocol: as §1, §2

EGFR L858R/T790M/C797S mutant, sequence (P00533 25-1210 T790M/C797S/L858R): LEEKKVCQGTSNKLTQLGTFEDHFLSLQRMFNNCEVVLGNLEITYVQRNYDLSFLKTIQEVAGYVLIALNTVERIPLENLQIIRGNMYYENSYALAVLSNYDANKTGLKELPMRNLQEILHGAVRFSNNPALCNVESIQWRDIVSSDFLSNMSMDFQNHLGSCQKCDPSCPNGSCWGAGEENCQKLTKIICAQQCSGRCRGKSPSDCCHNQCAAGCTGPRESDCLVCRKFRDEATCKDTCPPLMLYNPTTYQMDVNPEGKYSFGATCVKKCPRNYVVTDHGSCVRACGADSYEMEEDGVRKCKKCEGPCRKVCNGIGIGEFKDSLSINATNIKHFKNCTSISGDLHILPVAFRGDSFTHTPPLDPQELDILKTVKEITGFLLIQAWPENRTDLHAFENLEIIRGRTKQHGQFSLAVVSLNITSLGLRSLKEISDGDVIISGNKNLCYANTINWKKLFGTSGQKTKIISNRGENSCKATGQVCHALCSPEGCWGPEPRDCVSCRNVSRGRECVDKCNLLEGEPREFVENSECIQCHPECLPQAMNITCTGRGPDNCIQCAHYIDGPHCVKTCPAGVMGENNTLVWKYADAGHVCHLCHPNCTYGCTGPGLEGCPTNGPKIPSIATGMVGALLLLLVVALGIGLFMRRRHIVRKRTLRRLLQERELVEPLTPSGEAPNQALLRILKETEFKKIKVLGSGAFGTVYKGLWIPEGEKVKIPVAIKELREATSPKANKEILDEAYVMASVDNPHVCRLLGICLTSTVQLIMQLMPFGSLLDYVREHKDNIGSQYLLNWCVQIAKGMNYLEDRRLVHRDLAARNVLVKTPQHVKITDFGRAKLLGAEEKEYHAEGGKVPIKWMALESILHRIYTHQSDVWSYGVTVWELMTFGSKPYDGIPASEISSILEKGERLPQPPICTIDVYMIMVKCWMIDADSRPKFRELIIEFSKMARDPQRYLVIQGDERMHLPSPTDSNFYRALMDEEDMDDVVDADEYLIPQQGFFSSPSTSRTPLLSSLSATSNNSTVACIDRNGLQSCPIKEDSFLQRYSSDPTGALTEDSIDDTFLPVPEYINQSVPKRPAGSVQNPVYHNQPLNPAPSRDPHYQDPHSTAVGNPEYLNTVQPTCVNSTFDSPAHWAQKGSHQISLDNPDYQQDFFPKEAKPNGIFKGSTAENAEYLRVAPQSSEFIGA
EGFR (D770_N771insNPG), sequence (P00533 other isoform, or with tags, fused parts or gaps del 1-668/ins NPG behind 770 limits assumed): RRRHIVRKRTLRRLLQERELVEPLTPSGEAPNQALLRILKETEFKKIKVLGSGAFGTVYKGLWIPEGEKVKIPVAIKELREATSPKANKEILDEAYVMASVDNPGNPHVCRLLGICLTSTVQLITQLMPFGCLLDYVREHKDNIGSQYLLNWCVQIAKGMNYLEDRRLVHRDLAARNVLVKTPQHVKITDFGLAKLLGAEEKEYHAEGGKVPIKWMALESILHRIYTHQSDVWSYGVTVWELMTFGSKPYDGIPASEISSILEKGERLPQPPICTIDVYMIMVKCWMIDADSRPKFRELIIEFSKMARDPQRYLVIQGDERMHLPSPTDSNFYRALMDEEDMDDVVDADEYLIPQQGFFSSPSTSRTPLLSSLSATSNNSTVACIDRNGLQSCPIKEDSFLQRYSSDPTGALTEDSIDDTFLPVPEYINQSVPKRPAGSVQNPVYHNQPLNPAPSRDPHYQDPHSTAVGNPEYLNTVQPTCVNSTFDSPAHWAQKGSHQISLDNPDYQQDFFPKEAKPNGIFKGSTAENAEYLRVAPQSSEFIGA
EGFR WT, sequence (P00533 25-1210): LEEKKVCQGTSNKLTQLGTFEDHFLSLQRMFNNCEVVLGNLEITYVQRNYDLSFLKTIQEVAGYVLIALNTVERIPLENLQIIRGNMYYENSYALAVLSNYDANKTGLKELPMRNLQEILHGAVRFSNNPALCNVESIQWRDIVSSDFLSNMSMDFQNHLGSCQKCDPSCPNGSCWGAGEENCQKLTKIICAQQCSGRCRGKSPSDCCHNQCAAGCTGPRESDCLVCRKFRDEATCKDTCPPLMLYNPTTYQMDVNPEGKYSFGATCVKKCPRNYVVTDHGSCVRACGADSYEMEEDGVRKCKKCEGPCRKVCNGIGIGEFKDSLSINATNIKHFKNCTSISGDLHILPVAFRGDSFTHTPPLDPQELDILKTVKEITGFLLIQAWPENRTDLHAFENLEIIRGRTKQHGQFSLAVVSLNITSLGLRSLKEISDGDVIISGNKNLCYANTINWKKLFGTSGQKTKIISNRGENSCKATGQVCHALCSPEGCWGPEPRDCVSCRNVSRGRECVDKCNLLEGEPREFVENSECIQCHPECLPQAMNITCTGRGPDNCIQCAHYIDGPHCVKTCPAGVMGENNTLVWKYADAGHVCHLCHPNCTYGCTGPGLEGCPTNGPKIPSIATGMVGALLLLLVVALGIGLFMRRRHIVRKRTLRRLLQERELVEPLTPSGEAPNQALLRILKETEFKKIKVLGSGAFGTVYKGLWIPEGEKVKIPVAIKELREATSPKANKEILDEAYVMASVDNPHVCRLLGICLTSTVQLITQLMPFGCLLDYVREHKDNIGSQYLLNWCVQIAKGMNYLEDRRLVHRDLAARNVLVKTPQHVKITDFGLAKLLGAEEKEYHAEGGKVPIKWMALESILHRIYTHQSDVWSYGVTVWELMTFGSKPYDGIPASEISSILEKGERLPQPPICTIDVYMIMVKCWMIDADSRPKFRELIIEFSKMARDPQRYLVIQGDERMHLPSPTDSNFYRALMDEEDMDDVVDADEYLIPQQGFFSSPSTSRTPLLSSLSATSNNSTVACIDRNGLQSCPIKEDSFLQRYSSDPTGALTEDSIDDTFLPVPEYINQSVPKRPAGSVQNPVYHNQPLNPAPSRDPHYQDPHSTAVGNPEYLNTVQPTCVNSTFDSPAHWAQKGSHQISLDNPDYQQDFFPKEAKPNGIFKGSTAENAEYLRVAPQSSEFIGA
EGFR Δ746-750 mutant, sequence (P00533 other isoform, or with tags, fused parts or gaps del 1-668/del 746-750 limits assumed): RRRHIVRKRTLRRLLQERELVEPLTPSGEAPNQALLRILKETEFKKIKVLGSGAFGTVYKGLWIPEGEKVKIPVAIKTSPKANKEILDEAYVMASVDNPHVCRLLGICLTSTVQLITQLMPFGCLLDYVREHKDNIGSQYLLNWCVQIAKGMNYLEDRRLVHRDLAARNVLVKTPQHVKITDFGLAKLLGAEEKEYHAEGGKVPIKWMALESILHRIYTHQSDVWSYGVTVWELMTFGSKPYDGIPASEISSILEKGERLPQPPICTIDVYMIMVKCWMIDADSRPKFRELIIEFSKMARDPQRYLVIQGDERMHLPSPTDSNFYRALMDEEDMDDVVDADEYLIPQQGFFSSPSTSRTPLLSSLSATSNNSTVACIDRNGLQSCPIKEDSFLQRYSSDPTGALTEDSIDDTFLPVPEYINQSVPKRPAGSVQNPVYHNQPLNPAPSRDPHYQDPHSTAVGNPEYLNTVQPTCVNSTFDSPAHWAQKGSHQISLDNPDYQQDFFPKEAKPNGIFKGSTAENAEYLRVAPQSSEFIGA
EGFR Δ746-750/C797S mutant, sequence (P00533 other isoform, or with tags, fused parts or gaps C797S/del 1-668/del 746-750 limits assumed): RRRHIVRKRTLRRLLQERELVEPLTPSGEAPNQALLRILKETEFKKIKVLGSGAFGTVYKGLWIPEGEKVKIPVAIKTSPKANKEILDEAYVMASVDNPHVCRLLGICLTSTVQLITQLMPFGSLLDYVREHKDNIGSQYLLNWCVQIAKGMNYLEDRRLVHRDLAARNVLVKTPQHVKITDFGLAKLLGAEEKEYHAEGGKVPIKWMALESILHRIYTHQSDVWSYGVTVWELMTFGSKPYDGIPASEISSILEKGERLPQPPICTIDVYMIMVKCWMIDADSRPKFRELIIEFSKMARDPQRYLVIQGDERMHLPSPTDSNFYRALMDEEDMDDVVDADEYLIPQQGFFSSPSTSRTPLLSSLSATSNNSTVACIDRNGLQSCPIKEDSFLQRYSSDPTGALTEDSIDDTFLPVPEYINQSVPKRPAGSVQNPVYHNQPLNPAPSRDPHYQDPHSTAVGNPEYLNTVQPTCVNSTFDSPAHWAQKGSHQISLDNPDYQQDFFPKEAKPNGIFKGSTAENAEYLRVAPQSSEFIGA

SMILES	IC50 (EGFR (D770_N771insNPG)) [nM]	IC50 (EGFR Δ746-750 mutant) [nM]	IC50 [1] [nM]	IC50 (EGFR WT) [nM]	IC50 (EGFR L858R mutant) [nM]	IC50 [2] [nM]
CNC(=O)c1cnc2c(c1)/C=C/c1n[nH]c3ccc(cc13)-c1cnn(C)c1COCCO2 [Example 3, (18E)-N,8-dimethyl-8,9,11,12-tetrahydro-2H-3,5-ethenodipyrazolo[3′,4′:9,10;4″,3″:13,14] [1,4]dioxacyclopentadecino[5,6-b]pyridine-16-carboxamide]	–	–	–	–	–	863
Cc1nn(CC(C)(C)O)c2c1/C=C/c1n[nH]c3ccc(cc13)-c1cnn(C)c1OCCCO2 [Example 30, 1-[(17E)-8,16-dimethyl-2,8,11,12-tetrahydro-10H,14H-3,5-etheno[1,5]dioxacyclopentadecino[10,11-c:15,14-c′:6,7-c″]tripyrazol-14-yl]-2-methylpropan-2-ol]	983	217	–	1300	268	36.8
CC(=O)Cn1nc(C)c2c1OCCCOc1c(cnn1C)-c1ccc3[nH]nc(c3c1)/C=C/2 [Example 31, 1-[(17E)-8,16-dimethyl-2,8,11,12-tetrahydro-10H,14H-3,5-etheno[1,5]dioxacyclopentadecino[10,11-c:15,14-c′:6,7-c″]tripyrazol-14-yl]propan-2-one]	731	58.7	–	927	67.7	4.93
CCc1nn(C)c2c1/C=C/c1n[nH]c3ccc(cc13)-c1cnn(C)c1OCCCO2 [Ex. 10, (17E)-16-ethyl-8,14-dimethyl-2,11,12,14-tetrahydro-8H,10H-3,5-etheno[1,5]dioxacyclopentadecino[10,11-c:15,14-c′:6,7-c″]tripyrazole]	713	74.3	–	–	–	–
Cc1c2c(nn1CCN1CCCC1)OCCOC(C)c1c(cnn1C)-c1ccc3[nH]nc(c3c1)/C=C/2 (stereo not drawn) [Example 84, (17E)-8,9,16-trimethyl-15-[2-(pyrrolidin-1-yl)ethyl]-2,8,9,11,12,15-hexahydro-3,5-etheno[1,4]dioxacyclopentadecino[11,10-c:15,14-c′:6,7-c″]tripyrazole]	551	381	130	–	–	–
Cc1nn(C)c2c1/C=C/c1n[nH]c3ccc(cc13)-c1c(C)nn(C)c1OCCN(C)C2 [Example 47, (17E)-6,8,12,14,16-pentamethyl-2,10,11,12,13,14-hexahydro-8H-3,5-ethenotripyrazolo[3,4-f:3′,4′-j:4″,3″- n][1,4]oxazacyclopentadecine]	> 1000	488	944	–	–	–
Cc1c2c(nn1CC(C)(C)O)OCCCOc1c(cnn1C)-c1ccc3[nH]nc(c3c1)/C=C/2 [Ex. 28, 1-[(17E)-8,16-dimethyl-2,8,11,12-tetrahydro-10H,15H-3,5-etheno[1,5]dioxacyclopentadecino[10,11-c:15,14-c′:6,7-c″ ]tripyrazol-15-yl]-2-methylpropan-2-ol]	> 1000	819	–	> 1000	1000	578
Cc1c2c(nn1C)OCCCOc1c(cnn1C)-c1ccc3[nH]nc(c3c1)/C=C/2 [Ex. 9, (17E)-8,15,16-trimethyl-2,11,12,15-tetrahydro-8H,10H-3,5-etheno[1,5]dioxacyclopentadecino[10,11-c:15,14-c′:6,7-c″]tripyrazole]	945	284	–	1170	349	27.2
Cc1c2c(nn1CCO)OCCCOc1c(cnn1C)-c1ccc3[nH]nc(c3c1)/C=C/2 [Ex. 24, 2-[(17E)-8,16-dimethyl-2,8,11,12-tetrahydro-10H,15H-3,5-etheno[1,5]dioxacyclopentadecino[10,11-c:15,14-c′:6,7-c″]tripyrazol-15-yl]ethan-1-ol]	1770	755	–	> 1000	> 1000	315
Cc1ccc2c(n1)/C=C/c1n[nH]c3ccc(cc13)-c1cnn(C)c1O[C@@H](C)CCO2 [Ex. 39, (10S,18E)-8,10,16-trimethyl-2,8,11,12-tetrahydro-10H-3,5-ethenodipyrazolo[3′,4′:10,11;4″,3″:14,15] [1,5]dioxacyclopentadecino[7,6-b]pyridine]	1440	176	–	–	–	–

Continued, values first:

IC50 (EGFR (D770_N771insNPG)) [nM]	IC50 (EGFR Δ746-750 mutant) [nM]	IC50 [1] [nM]	IC50 (EGFR WT) [nM]	IC50 (EGFR L858R mutant) [nM]	IC50 [2] [nM]	SMILES
304	55.5	40.3	–	–	–	CCOc1nn(CCO)c2c1/C=C/c1n[nH]c3ccc(cc13)-c1cnn(C)c1OC1CCCN(C2)C1C (stereo not drawn) [Example 242, 2-[(19E)-18-ethoxy-8,21-dimethyl-2,10,11,12,13,15-hexahydro-3,5-etheno-10,14-methanotripyrazolo[3,4-h:3′,4′-l:4″,3″-p][1,6]oxazacycloheptadecin-16(8H)-yl]ethan-1-ol]
212	64	49.9	157	41.8	17.3	CCc1nn(C)c2c1/C=C/c1n[nH]c3ccc(cc13)-c1cnn(C)c1O[C@@H](C)CCO2 [Ex. 37, (10S,17E)-16-ethyl-8,10,14-trimethyl-2,11,12,14-tetrahydro-8H,10H-3,5-etheno[1,5]dioxacyclopentadecino[10,11-c:15,14-c′:6,7-c″]tripyrazole]
312	124	34.7	339	63.8	19.5	CCc1nn(C)c2c1/C=C/c1n[nH]c3ccc(cc13)-c1cnn(C)c1OCC[C@H](C)O2 [Ex. 14, (12S,17E)-16-ethyl-8,12,14-trimethyl-2,11,12,14-tetrahydro-8H,10H-3,5-etheno[1,5]dioxacyclopentadecino[10,11-c:15,14-c′:6,7-c″]tripyrazole]
191	19.7	6.67	–	–	–	Cc1c2c(nn1CCN1CCCC1)CN(C)C[C@H](C)Oc1c(cnn1C)-c1ccc3[nH]nc(c3c1)/C=C/2 [Example 89, (10S,17E)-8,10,12,16-tetramethyl-15-[2-(pyrrolidin-1-yl)ethyl]-2,10,11,12,13,15-hexahydro-8H-3,5-ethenotripyrazolo[3,4-f:3′,4′-j:4″,3″-n][1,4]oxazacyclopentadecine]
0.18	0.13	0.31	–	–	–	CCOc1nn(CCO)c2c1/C=C/c1n[nH]c3ccc(cc13)-c1cnn(C)c1O[C@H](C)[C@H]1CCCN1C2 (single isomer, unassigned) [compound 241]
521	132	–	523	49.2	48.4	Cn1ncc2c1OCCCCOc1ccccc1/C=C/c1n[nH]c3ccc-2cc13 [Ex. 16, (11E)-1-methyl-18,19,20,21-tetrahydro-1H,8H-10,7,4-(ethan[1]yl[1,2]diylidene)pyrazolo[3,4-g][1,6,13,14]benzodioxadiazacyclononad ecine]
457	155	–	1260	242	37.3	Cc1nn(CCN2CCCC2)c2c1/C=C/c1n[nH]c3ccc(cc13)-c1cnn(C)c1OCCCO2 [Ex. 32, (17E)-8,16-dimethyl-14-[2-(pyrrolidin-1-yl)ethyl]-2,11,12,14-tetrahydro-8H,10H-3,5-etheno[1,5]dioxacyclopentadecino[10,11-c:15,14-c′:6,7-c″ ]tripyrazole]
55.4	34.6	31.3	–	–	–	Cc1c2c(nn1[C@H]1CCN(C)C[C@@H]1O)OCCCOc1c(cnn1C)-c1ccc3[nH]nc(c3c1)/C=C/2 (racemic) [Example 83, (rac)-4-[(17E)-8,16-dimethyl-2,8,11,12-tetrahydro-10H,15H-3,5-etheno[1,5]dioxacyclopentadecino[10,11-c:15,14-c′:6,7-c″]tripyrazol-15-yl]-1-methylpiperidin-3-ol]
286	139	27.5	419	105	26.4	CCc1nn(C)c2c1/C=C/c1n[nH]c3ccc(cc13)-c1cnn(C)c1OCC[C@@H](C)O2 [Ex. 15, (12R,17E)-16-ethyl-8,12,14-trimethyl-2,11,12,14-tetrahydro-8H,10H-3,5-etheno[1,5]dioxacyclopentadecino[10,11-c:15,14-c′:6,7-c″]tripyrazole]
304	221	101	–	–	–	Cc1nn(C)c2c1/C=C/c1n[nH]c3ccc(cc13)-c1cnn(C)c1CN(C)C[C@H](C)O2 (single isomer, unassigned) [Example 97]
191	154	–	326	114	40.9	Cc1c2c(nn1CCN1CCCC1)OCCCOc1c(cnn1C)-c1ccc3[nH]nc(c3c1)/C=C/2 [Example 34, (17E)-8,16-dimethyl-15-[2-(pyrrolidin-1-yl)ethyl]-2,11,12,15-tetrahydro-8H,10H-3,5-etheno[1,5]dioxacyclopentadecino[10,11-c:15,14-c′:6,7-c″]tripyrazole]
